From US20110230471A1, “BENZONAPHTYRIDINE COMPOUNDS AS INHIBITORS OF AUTOTAXIN” (MERCK PATENT GESELLSCHAFT MIT BESCHRANKTER HAFTUNG, priority 2008, published 2011)

Target: T1, recombinant autotaxin (Homo sapiens, UniProt Q13822)
T1 construct: made in house; host or cells: Hi5 insect cells (baculovirus)
Assay: Autotaxin test (enzyme test), Amplex Red
Type: biochemical
Details: Autotaxin inhibition (enzyme test), TABLE 2 (B compounds); substrate LPC 75 μM
Summary of the method: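 Compound pre-incubated 30 min at 22° C with 16 ng baculovirus (Hi5)-expressed autotaxin, then LPC added (75 μM final) for 90 min at 37° C. Choline released detected via choline oxidase/peroxidase/Amplex Red coupling; resorufin fluorescence (ex 485, em 612 nm) read in kinetic mode, Tris buffer pH 7.9 with 0.1% lipid-free BSA.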

SMILES	IC50
COc1ccc(Cl)cc1-c1nnc(CN2CCc3nc4ccccc4c(C(=O)NC4CCN(C)CC4)c3C2)o1 [Compound B33, N-(1-Methylpiperidin-4-yl)-2-[5-(5-chloro-2-methoxyphenyl)-1,3,4-oxadiazol-2-ylmethyl]-1,2,3,4-tetrahydrobenzo[b][1,6]naphthyridine-10-carboxamide]	> 1000 nM
COc1c(F)cc(-c2ccc(N)cc2)cc1NC(=O)CN1CCc2nc3ccccc3c(C(=O)N3CCOCC3)c2C1 [Compound B35, N-(4′-Amino-5-fluoro-4-methoxybiphenyl-3-yl)-2-[10-(morpholine-4-carbonyl)-3,4-dihydro-1H-benzo[b][1,6]naphthyridin-2-yl]acetamide]	> 1000 nM
CN1CCC(NC(=O)c2c3c(nc4ccccc24)CCN(CCC(=O)Nc2cc(Cl)ccc2N)C3)CC1 [Compound B37]	> 1000 nM
COc1ccc(Cl)cc1/C=C/C(=O)N1CCc2nc3ccccc3c(C(=O)NC3CCN(C)CC3)c2C1 [Compound B40, N-(1-Methylpiperidin-4-yl)-2-[(E)-3-(5-chloro-2-methoxyphenyl)acryloyl]-1,2,3,4-tetrahydrobenzo[b][1,6]naphthyridine-10-carboxamide]	> 1000 nM
COc1ccc(Cl)cc1NC(=O)CN1CCc2nc3ccccc3c(C(=O)NCCF)c2C1 [Compound B42, N-(2-Fluoroethyl)-2-[(5-chloro-2-methoxyphenylcarbamoyl)methyl]-1,2,3,4-tetrahydrobenzo[b][1,6]naphthyridine-10-carboxamide]	> 1000 nM
COc1ccc(Cl)cc1NC(=O)CN1CCc2nc3ccccc3c(C(=O)NC3CCOCC3)c2C1 [Compound B43, N-(Tetrahydropyran-4-yl)-2-[(5-chloro-2-methoxyphenylcarbamoyl)methyl]-1,2,3,4-tetrahydrobenzo[b][1,6]naphthyridine-10-carboxamide]	100 to 1000 nM
COc1ccc(Cl)cc1NC(=O)CN1CCc2nc3ccccc3c(C(=O)NC3CCCNC3=O)c2C1 (stereo not shown) [Compound B47, N-(2-Oxopiperidin-3-yl)-2-[(5-chloro-2-methoxyphenylcarbamoyl)methyl]-1,2,3,4-tetrahydrobenzo[b][1,6]naphthyridine-10-carboxamide]	100 to 1000 nM
O=C(c1c2c(nc3ccccc13)CCN(Cc1ccnc(Cl)c1)C2)N1CCOCC1 [Compound B52, [2-(2-Chloropyridin-4-ylmethyl)-1,2,3,4-tetrahydrobenzo[b][1,6]naphthyridin-10-yl]morpholin-4-ylmethanone]	> 1000 nM
COc1ccc(Cl)cc1NC(=O)CN1CCc2nc3ccccc3c(C(=O)NC3CCCNC3)c2C1 (stereo not shown) [Compound B53, N-Piperidin-3-yl-2-[(5-chloro-2-methoxyphenylcarbamoyl)methyl]-1,2,3,4-tetrahydrobenzo[b][1,6]naphthyridine-10-carboxamide]	> 1000 nM
CN1CCC(NC(=O)c2c3c(nc4ccccc24)CCN(Cc2ccc4c(Cl)cc(Cl)c(O)c4n2)C3)CC1 [Compound B57, N-(1-Methylpiperidin-4-yl)-2-(5,7-dichloro-8-hydroxyquinolin-2-ylmethyl)-1,2,3,4-tetrahydrobenzo[b][1,6]naphthyridine-10-carboxamide]	> 1000 nM
